# Measured values reported in ChEMBL document CHEMBL4665765, “Antimalarial activity of tetrahydro-β-carbolines targeting the ATP binding pocket of the Plasmodium falciparum heat shock 90 protein” (Bioorg Med Chem Lett, 2020).
# What was measured:
# [1] = Therapeutic index, ratio of EC50 for cytotoxicity against human BJ cells to EC50 for antimalarial activity against Plasmodium falciparum 3D7; format: toxicity, cell-based; conditions: read-out: Ratio EC50
# BJ = assay: Cytotoxicity against human BJ cells; format: cell-based
# Plasmodium falciparum [2] = assay: Antimalarial activity against chloroquine-sensitive Plasmodium falciparum 3D7 infected in o-positive erythrocyte assessed as reduction in parasite growth; format: functional, organism-based; conditions: 3D7, Erythrocyte
# HeLa = assay: Cytotoxicity against human HeLa cells assessed as reduction in cell viability incubated for 48 hrs by CCK8 assay; format: cell-based
# HepG2 = assay: Cytotoxicity against human HepG2 cells assessed as reduction in cell viability incubated for 48 hrs by CCK8 assay; format: cell-based; conditions: HepG2, 48 h
# Plasmodium falciparum [3] = assay: Antimalarial activity against Plasmodium falciparum 3D7 infected in erythrocytes assessed as reduction in parasite growth incubated for 72 hrs by SYBR green dye based fluorescence assay; format: functional, organism-based; conditions: 3D7, Erythrocyte
smiles,measurement,setting,value
Clc1ccc2[nH]c3c(c2c1)CCNC3C1CCCCC1 (stereo unspecified),selectivity ratio,[1],2
same,EC50,BJ,> 24 µM
same,EC50,Plasmodium falciparum [2],12.1 µM
Oc1ccc(C2NCCc3c2[nH]c2ccc(Cl)cc32)cc1 (stereo unspecified),selectivity ratio,[1],5
same,EC50,BJ,> 24 µM
same,EC50,Plasmodium falciparum [2],4.45 µM
CC1NCCc2c1[nH]c1ccc(Cl)cc21 (stereo unspecified),EC50,HeLa,1100 µM
same,EC50,HepG2,160 µM
same,EC50,Plasmodium falciparum [3],12.2 µM
Oc1cccc(C2NCCc3c2[nH]c2ccc(Cl)cc32)c1 (stereo unspecified),selectivity ratio,[1],3
same,EC50,BJ,> 24 µM
same,EC50,Plasmodium falciparum [2],7.53 µM
Clc1ccc2[nH]c3c(c2c1)CCNC3c1cccc2ccccc12 (stereo unspecified),selectivity ratio,[1],3
same,EC50,BJ,> 24 µM
same,EC50,Plasmodium falciparum [2],7.06 µM
Cc1cccc(C2NCCc3c2[nH]c2ccc(Cl)cc32)c1 (stereo unspecified),selectivity ratio,[1],68
same,EC50,BJ,> 24 µM
same,EC50,Plasmodium falciparum [2],0.352 µM
CC1NCCc2c1n(C)c1ccc(Cl)cc21 (stereo unspecified),selectivity ratio,[1],1
same,EC50,BJ,> 24 µM
same,EC50,Plasmodium falciparum [2],> 18 µM
Cc1ccccc1C1NCCc2c1[nH]c1ccc(Cl)cc21 (stereo unspecified),selectivity ratio,[1],12
same,EC50,BJ,> 24 µM
same,EC50,Plasmodium falciparum [2],2.08 µM
Clc1ccc2[nH]c3c(c2c1)CCNC3c1ccccc1 (stereo unspecified),selectivity ratio,[1],14
same,EC50,BJ,> 24 µM
same,EC50,Plasmodium falciparum [2],1.67 µM
Clc1ccc(C2NCCc3c2[nH]c2ccc(Cl)cc32)cc1 (stereo unspecified),selectivity ratio,[1],2
same,EC50,BJ,23 µM
same,EC50,Plasmodium falciparum [2],13.3 µM
Clc1ccc2[nH]c3c(c2c1)CCNC3Cc1ccccc1 (stereo unspecified),selectivity ratio,[1],2
same,EC50,BJ,> 24 µM
same,EC50,Plasmodium falciparum [2],10.9 µM
Clc1ccc2[nH]c3c(c2c1)CCNC3c1ccccc1Cl (stereo unspecified),selectivity ratio,[1],12
same,EC50,BJ,> 24 µM
same,EC50,Plasmodium falciparum [2],1.94 µM
Clc1ccc2[nH]c3c(c2c1)CCNC3c1ccc2ccccc2c1 (stereo unspecified),selectivity ratio,[1],1
same,EC50,BJ,17.2 µM
same,EC50,Plasmodium falciparum [2],16.6 µM
Oc1ccccc1C1NCCc2c1[nH]c1ccc(Cl)cc21 (stereo unspecified),selectivity ratio,[1],4
same,EC50,BJ,15.7 µM
same,EC50,Plasmodium falciparum [2],4.35 µM
Cc1ccc(C2NCCc3c2[nH]c2ccc(Cl)cc32)cc1 (stereo unspecified),selectivity ratio,[1],1
same,EC50,BJ,> 24 µM
same,EC50,Plasmodium falciparum [2],17.9 µM
Clc1cccc(C2NCCc3c2[nH]c2ccc(Cl)cc32)c1 (stereo unspecified),selectivity ratio,[1],9
same,EC50,BJ,23.6 µM
same,EC50,Plasmodium falciparum [2],2.53 µM
CCn1c2c(c3cc(Cl)ccc31)CCNC2C (stereo unspecified),selectivity ratio,[1],1
same,EC50,BJ,> 24 µM
same,EC50,Plasmodium falciparum [2],> 18 µM
